In patent US9902702B2, “Spirocycloheptanes as inhibitors of rock” (BRISTOL-MYERS SQUIBB COMPANY, priority 2014, dated 2018) one finds IC50 data, which are given here for 27 compounds.

The target of this assay is ROCK2 (Homo sapiens, UniProt O75116). In words: ROCK assay: phosphorylation of FITC peptide substrate, LABCHIP 3000 mobility shift. In kind it is biochemical. The note with it: 5 μM ATP, 1.5 μM peptide substrate; read-out: ROCK2 Activity (ROCK IC50 range). The essentials: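 IC50 values come from curve-fitting percent kinase inhibition across a compound dilution series. The reaction is started with Rho kinase variant in HEPES pH 7.5 buffer with MgCl2, Brij-35 and DTT, with 5 μM ATP, 1.5 μM FITC-labelled peptide and under 2% DMSO. After EDTA quench, product and substrate are separated by microfluidic mobility shift.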
ROCK2, sequence (O75116 whole entry, species assumed): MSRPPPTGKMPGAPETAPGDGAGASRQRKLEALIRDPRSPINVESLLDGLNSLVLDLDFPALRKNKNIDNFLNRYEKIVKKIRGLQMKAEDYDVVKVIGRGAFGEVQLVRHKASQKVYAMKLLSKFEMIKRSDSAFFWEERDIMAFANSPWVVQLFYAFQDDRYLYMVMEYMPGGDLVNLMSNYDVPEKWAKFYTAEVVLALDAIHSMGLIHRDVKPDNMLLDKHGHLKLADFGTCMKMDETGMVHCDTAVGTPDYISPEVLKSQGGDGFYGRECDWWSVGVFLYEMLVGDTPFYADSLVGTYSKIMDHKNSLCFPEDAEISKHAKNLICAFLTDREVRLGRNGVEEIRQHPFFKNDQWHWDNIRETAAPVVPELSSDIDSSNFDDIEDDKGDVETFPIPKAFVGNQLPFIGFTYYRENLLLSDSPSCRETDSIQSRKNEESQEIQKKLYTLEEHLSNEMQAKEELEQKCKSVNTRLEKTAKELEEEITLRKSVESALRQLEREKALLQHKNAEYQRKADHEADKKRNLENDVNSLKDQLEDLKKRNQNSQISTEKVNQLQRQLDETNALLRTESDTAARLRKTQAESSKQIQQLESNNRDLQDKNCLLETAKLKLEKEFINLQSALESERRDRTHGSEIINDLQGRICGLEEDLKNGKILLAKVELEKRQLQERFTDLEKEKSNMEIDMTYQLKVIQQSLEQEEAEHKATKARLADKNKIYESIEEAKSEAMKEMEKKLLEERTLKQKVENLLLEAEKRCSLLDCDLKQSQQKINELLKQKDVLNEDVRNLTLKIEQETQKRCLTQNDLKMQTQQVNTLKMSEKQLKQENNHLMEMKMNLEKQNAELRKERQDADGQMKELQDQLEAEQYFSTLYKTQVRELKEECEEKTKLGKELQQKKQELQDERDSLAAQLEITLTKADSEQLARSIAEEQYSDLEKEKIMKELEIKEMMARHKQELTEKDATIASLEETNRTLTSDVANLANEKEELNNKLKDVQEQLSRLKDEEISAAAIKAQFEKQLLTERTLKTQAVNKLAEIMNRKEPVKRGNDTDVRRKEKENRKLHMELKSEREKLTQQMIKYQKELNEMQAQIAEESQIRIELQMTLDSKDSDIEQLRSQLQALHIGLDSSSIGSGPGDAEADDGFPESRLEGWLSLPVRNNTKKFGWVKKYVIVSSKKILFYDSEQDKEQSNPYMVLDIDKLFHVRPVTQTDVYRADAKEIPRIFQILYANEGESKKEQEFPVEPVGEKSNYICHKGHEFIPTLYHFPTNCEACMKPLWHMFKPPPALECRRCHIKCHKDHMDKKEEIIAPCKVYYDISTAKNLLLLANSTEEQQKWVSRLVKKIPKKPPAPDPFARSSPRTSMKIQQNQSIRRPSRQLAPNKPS

In the case of `O=C(NC1CC2(C1)CC(c1n[nH]c(=O)c3ccccc13)C2)c1noc(-c2ccc(F)cc2)n1` [Example 118, 5-(4-fluorophenyl)-N-((aR)-6-(4-oxo-3,4-dihydrophthalazin-1-yl)spiro[3.3]heptan-2-yl)-1,2,4-oxadiazole-3-carboxamide], the 50% inhibitory concentration (IC50) was in the range of 15.1 to 100 nM.

For `O=C(N[C@H]1CC2(C1)C[C@H](c1n[nH]c(=O)c3ccccc31)C2)c1cnn2cc(OC[C@@H](O)C(F)(F)F)ccc12` (stereo partly drawn) [Example 119, N-((aR)-6-(4-oxo-3,4-dihydrophthalazin-1-yl)spiro[3.3]heptan-2-yl)-6-(3,3,3-trifluoro-2-hydroxypropoxy)pyrazolo[1,5-a]pyridine-3-carboxamide], the IC50 is 0.2 to 2 nM. `O=C(N[C@H]1CC2(C1)C[C@H](c1n[nH]c(=O)c3ccccc31)C2)c1cnn2cc(OC[C@@H](O)C(F)(F)F)ccc12` (stereo partly drawn) [Example 120, N-((aR)-6-(4-oxo-3,4-dihydrophthalazin-1-yl)spiro[3.3]heptan-2-yl)-6-(3,3,3-trifluoro-2-hydroxypropoxy)pyrazolo[1,5-a]pyridine-3-carboxamide]: the IC50 was 0.2 to 2 nM. `O=C(N[C@H]1CC2(C1)C[C@H](c1n[nH]c(=O)c3ccccc31)C2)c1cnn2cc(O[C@@H]3CCOC3)ccc12` (stereo partly drawn) [Example 121, N-((aR)-6-(4-oxo-3,4-dihydrophthalazin-1-yl)spiro[3.3]heptan-2-yl)-6-((tetrahydrofuran-3-yl)oxy)pyrazolo[1,5-a]pyridine-3-carboxamide]: the IC50 was 0.2 to 2 nM. On to `O=C(N[C@H]1CC2(C1)C[C@H](c1n[nH]c(=O)c3ccccc31)C2)c1cnn2cc(O[C@@H]3CCOC3)ccc12` (stereo partly drawn) [Example 122, N-((aR)-6-(4-oxo-3,4-dihydrophthalazin-1-yl)spiro[3.3]heptan-2-yl)-6-((tetrahydrofuran-3-yl)oxy)pyrazolo[1,5-a]pyridine-3-carboxamide], for which the IC50 lay within 0.2 to 2 nM.

On to `Cc1cccc2c(C(=O)N[C@H]3CC4(C3)C[C@H](c3n[nH]c(=O)c5ccccc53)C4)cnn12` (stereo partly drawn) [Example 123, 7-methyl-N-((aR)-6-(4-oxo-3,4-dihydrophthalazin-1-yl)spiro[3.3]heptan-2-yl)pyrazolo[1,5-a]pyridine-3-carboxamide], for which the IC50 is 2.01 to 5 nM. For the compound `COc1c(C(=O)NC2CC3(C2)CC(c2n[nH]c(=O)c4ccccc24)C3)nc2ccccn12` (stereo not drawn) [Example 124, 3-methoxy-N-((αR)-6-(4-oxo-3,4-dihydrophthalazin-1-yl)spiro[3.3]heptan-2-yl)imidazo[1,2-α]pyridine-2-carboxamide], the IC50 fell in the range of 15.1 to 100 nM. Take `O=C(NC1CC2(C1)CC(c1n[nH]c(=O)c3ccccc13)C2)c1cnn2c(C3CC3)c(OCc3ccccc3)ccc12` (stereo not drawn) [Example 125, 6-(benzyloxy)-7-cyclopropyl-N-((αR)-6-(4-oxo-3,4-dihydrophthalazin-1-yl)spiro[3.3]heptan-2-yl)pyrazolo[1,5-α]pyridin-3-carboxamide]: the IC50 was 2.01 to 5 nM.

As for `Cc1c(OCc2ccccc2)ccc2c(C(=O)NC3CC4(C3)CC(c3n[nH]c(=O)c5ccccc35)C4)cnn12` (stereo not drawn) [Example 126, 6-(benzyloxy)-7-methyl-N-((αR)-6-(4-oxo-3,4-dihydrophthalazin-1-yl)spiro[3.3]heptan-2-yl)pyrazolo[1,5-α]pyridine-3-carboxamide], the half-inhibitory concentration (IC50) was in the range of 0.2 to 2 nM. Regarding `N#Cc1c(OCc2ccccc2)ccc2c(C(=O)NC3CC4(C3)CC(c3n[nH]c(=O)c5ccccc35)C4)cnn12` (stereo not drawn) [Example 127, 6-(benzyloxy)-7-cyano-N-((αR)-6-(4-oxo-3,4-dihydrophthalazin-1-yl)spiro[3.3]heptan-2-yl)pyrazolo[1,5-α]pyridine-3-carboxamide], the concentration for half-maximal inhibition (IC50) lay in the range of 0.2 to 2 nM. For `O=C(NC1CC2(C1)CC(c1n[nH]c(=O)c3ccccc13)C2)c1cnn2c(C3CC3)c(O)ccc12` (stereo not drawn) [Example 128, 7-cyclopropyl-6-hydroxy-N-((αR)-6-(4-oxo-3,4-dihydrophthalazin-1-yl)spiro[3.3]heptan-2-yl)pyrazolo[1,5-α]pyridine-3-carboxamide], the IC50 lay in the range of 2.01 to 5 nM. The same measure for `COc1ccccc1-n1cc(C(=O)NC2CC3(C2)CC(c2n[nH]c(=O)c4ccccc24)C3)nn1` (stereo not drawn) [Example 129, 1-(2-methoxyphenyl)-N-((αR)-6-(4-oxo-3,4-dihydrophthalazin-1-yl)spiro[3.3]heptan-2-yl)-1H-1,2,3-triazole-4-carboxamide]: 5.1 to 15 nM.

With `CN(C)Cc1c(OCc2ccccc2)ccc2c(C(=O)NC3CC4(C3)CC(c3n[nH]c(=O)c5ccccc35)C4)cnn12` (stereo not drawn) [Example 130, 6-(benzyloxy)-7-((dimethylamino)methyl)-N-((αR)-6-(4-oxo-3,4-dihydrophthalazin-1-yl)spiro[3.3]heptan-2-yl)pyrazolo[1,5-α]pyridine-3-carboxamide], the half-inhibitory concentration (IC50) was 5.1 to 15 nM. The same measure for `O=C(NC1CC2(C1)CC(c1n[nH]c(=O)c3ccccc13)C2)c1cnn2cc(OC(CF)CF)ccc12` (stereo not drawn) [Example 131, 6-((1,3-difluoropropan-2-yl)oxy)-N-((αR)-6-(4-oxo-3,4-dihydrophthalazin-1-yl)spiro[3.3]heptan-2-yl)pyrazolo[1,5-α]pyridine-3-carboxamide]: 0.2 to 2 nM; for `O=C(NC1CC2(C1)CC(c1n[nH]c(=O)c3ccccc13)C2)c1cnn2cc(OC3CCS(=O)(=O)CC3)ccc12` (stereo not drawn) [Example 132, 6-((1,1-dioxidotetrahydro-2H-thiopyran-4-yl)oxy)-N-((αR)-6-(4-oxo-3,4-dihydrophthalazin-1-yl)spiro[3.3]heptan-2-yl)pyrazolo[1,5-α]pyridine-3-carboxamide]: 0.2 to 2 nM. The same measure for `O=C(NC1CC2(C1)CC(c1n[nH]c(=O)c3ccccc13)C2)c1cnn2cc(OCCC(F)(F)F)ccc12` (stereo not drawn) [Example 133, N-((αR)-6-(4-oxo-3,4-dihydrophthalazin-1-yl)spiro[3.3]heptan-2-yl)-6-(3,3,3-trifluoropropoxy)pyrazolo[1,5-α]pyridine-3-carboxamide]: 0.2 to 2 nM. Consider `O=C(NC1CC2(C1)CC(c1n[nH]c(=O)c3ccccc13)C2)c1cnn2cc(OC3CCC(F)(F)CC3)ccc12` (stereo not drawn) [Example 134, 6-((4,4-difluorocyclohexyl)oxy)-N-((αR)-6-(4-oxo-3,4-dihydrophthalazin-1-yl)spiro[3.3]heptan-2-yl)pyrazolo[1,5-α]pyridine-3-carboxamide], for which the IC50 fell in the range of 0.2 to 2 nM. In the case of `O=C(NC1CC2(C1)CC(c1n[nH]c(=O)c3ccccc13)C2)c1cnn2cc(OC3CCOCC3)ccc12` (stereo not drawn) [Example 135, N-((αR)-6-(4-oxo-3,4-dihydrophthalazin-1-yl)spiro[3.3]heptan-2-yl)-6-((tetrahydro-2H-pyran-4-yl)oxy)pyrazolo[1,5-α]pyridine-3-carboxamide], the 50% inhibitory concentration (IC50) lay within 0.2 to 2 nM. With `COC(=O)N1CC(Oc2ccc3c(C(=O)NC4CC5(C4)CC(c4n[nH]c(=O)c6ccccc46)C5)cnn3c2)C1` (stereo not drawn) [Example 136], the IC50 was in the range of 2.01 to 5 nM. The same measure for `O=C(NC1CC2(C1)CC(c1n[nH]c(=O)c3ccccc13)C2)c1cnn2cc(O)ccc12` (stereo not drawn) [Example 137, 6-hydroxy-N-((αR)-6-(4-oxo-3,4-dihydrophthalazin-1-yl)spiro[3.3]heptan-2-yl)pyrazolo[1,5-α]pyridine-3-carboxamide]: 2.01 to 5 nM; for `O=C(NC1CC2(C1)CC(c1n[nH]c(=O)c3ccccc13)C2)c1cnn2cc(OC3CC(F)(F)C3)ccc12` (stereo not drawn) [Example 138, 6-(3,3-difluorocyclobutoxy)-N-((αR)-6-(4-oxo-3,4-dihydrophthalazin-1-yl)spiro[3.3]heptan-2-yl)pyrazolo[1,5-α]pyridine-3-carboxamide]: 0.2 to 2 nM; for `O=C(NC1CC2(C1)CC(c1n[nH]c(=O)c3ccccc13)C2)c1cnn2cc(OCCOCC(F)(F)F)ccc12` (stereo not drawn) [Example 139, N-((αR)-6-(4-oxo-3,4-dihydrophthalazin-1-yl)spiro[3.3]heptan-2-yl)-6-(2-(2,2,2-trifluoroethoxy)ethoxy)pyrazolo[1,5-α]pyridine-3-carboxamide]: 0.2 to 2 nM. As for `O=C(NC1CC2(C1)CC(c1n[nH]c(=O)c3ccccc13)C2)c1cnn2cc(OCc3nnc(C4CC4)s3)ccc12` (stereo not drawn) [Example 140, 6-((5-cyclopropyl-1,3,4-thiadiazol-2-yl)methoxy)-N-((αR)-6-(4-oxo-3,4-dihydrophthalazin-1-yl)spiro[3.3]heptan-2-yl)pyrazolo[1,5-α]pyridine-3-carboxamide], the 50% inhibitory concentration (IC50) fell in the range of 0.2 to 2 nM.

Regarding `O=C(NC1CC2(C1)CC(c1n[nH]c(=O)c3ccccc13)C2)c1cnn2c(C(F)(F)F)c(OCc3ccccc3)ccc12` (stereo not drawn) [Example 141, 6-(benzyloxy)-N-((αR)-6-(4-oxo-3,4-dihydrophthalazin-1-yl)spiro[3.3]heptan-2-yl)-7-(trifluoromethyl)pyrazolo[1,5-α]pyridine-3-carboxamide], the IC50 lay within 5.1 to 15 nM. In the case of `CC(C)(O)Cn1nc(C(=O)N[C@H]2CC3(C2)C[C@H](c2n[nH]c(=O)c4ccccc42)C3)c2ccc(C3CC3)cc21` (stereo partly drawn) [Example 142, 6-cyclopropyl-1-(2-hydroxy-2-methylpropyl)-N-((aR)-6-(4-oxo-3,4-dihydrophthalazin-1-yl)spiro[3.3]heptan-2-yl)-1H-indazole-3-carboxamide] it was 2.01 to 5 nM; in that of `CC(C)(O)Cn1nc(C(=O)N[C@H]2CC3(C2)C[C@H](c2n[nH]c(=O)c4ccccc42)C3)c2ccc(-c3ccccc3)cc21` (stereo partly drawn) [Example 143, 1-(2-hydroxy-2-methylpropyl)-N-((aR)-6-(4-oxo-3,4-dihydrophthalazin-1-yl)spiro[3.3]heptan-2-yl)-6-phenyl-1H-indazole-3-carboxamide], 2.01 to 5 nM; in that of `CC(C)(O)Cn1nc(C(=O)NC2CC3(C2)CC(c2n[nH]c(=O)c4ccccc24)C3)c2ccc(-c3ccc(Cl)cc3)cc21` (stereo not drawn) [Example 144, 6-(4-chlorophenyl)-1-(2-hydroxy-2-methylpropyl)-N-((αR)-6-(4-oxo-3,4-dihydrophthalazin-1-yl)spiro[3.3]heptan-2-yl)-1H-indazole-3-carboxamide], 5.1 to 15 nM.

One may read the IC50 as the concentration that inhibits the measured activity by half.
